# Reference: the supplement of paper PMC10307832
# What was measured:
# Test in all cases: relative viability (nuclei count vs DMSO), 5 days (fraction); higher = more cells survive
# Etoposide + Linsitinib = compound: COc1cc([C@@H]2c3cc4c(cc3[C@@H](O[C@@H]3O[C@@H]5CO[C@@H](C)O[C@H]5[C@H](O)[C@H]3O)[C@H]3COC(=O)[C@H]23)OCO4)cc(OC)c1O [Etoposide] + C[C@]1(O)C[C@@H](c2nc(-c3ccc4ccc(-c5ccccc5)nc4c3)c3c(N)nccn32)C1 [Linsitinib] (partner 1 µM)
# In short: (§1)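 Five library-drug doses in √10 steps were combined with a fixed anchor-drug dose, or a single drug was given alone, by pin tool to lung cancer cell lines in 1536-well plates the day after seeding. Nuclei were stained and counted after 5 days. Relative viability is the nuclei count in treated wells over that in vehicle wells, taken as the median of duplicate plates.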
# Bleomycin + Tozasertib = compound: CC1=C(N=C(N=C1N)[C@H](CC(=O)N)NC[C@@H](C(=O)N)N)C(=O)N[C@@H]([C@H](C2=CN=CN2)OC3C(C(C(C(O3)CO)O)O)OC4C(C(C(C(O4)CO)O)OC(=O)N)O)C(=O)N[C@H](C)[C@H]([C@H](C)C(=O)N[C@@H]([C@@H](C)O)C(=O)NCCC5=NC(=CS5)C6=NC(=CS6)C(=O)NCCC[S+](C)C)O [Bleomycin] + Cc1cc(Nc2cc(N3CCN(C)CC3)nc(Sc3ccc(NC(=O)C4CC4)cc3)n2)n[nH]1 [Tozasertib] (partner 0.1 µM); settings: main component drawn
# In short: as §1
# Etoposide + Foretinib = compound: COc1cc([C@@H]2c3cc4c(cc3[C@@H](O[C@@H]3O[C@@H]5CO[C@@H](C)O[C@H]5[C@H](O)[C@H]3O)[C@H]3COC(=O)[C@H]23)OCO4)cc(OC)c1O [Etoposide] + COc1cc2c(Oc3ccc(NC(=O)C4(C(=O)Nc5ccc(F)cc5)CC4)cc3F)ccnc2cc1OCCCN1CCOCC1 [Foretinib] (partner 0.25 µM)
# In short: as §1
# Etoposide + Bortezomib = compound: COc1cc([C@@H]2c3cc4c(cc3[C@@H](O[C@@H]3O[C@@H]5CO[C@@H](C)O[C@H]5[C@H](O)[C@H]3O)[C@H]3COC(=O)[C@H]23)OCO4)cc(OC)c1O [Etoposide] + CC(C)C[C@H](NC(=O)[C@H](Cc1ccccc1)NC(=O)c1cnccn1)B(O)O [Bortezomib] (partner 0.002 µM)
# In short: as §1
Cell Line,relative viability (Etoposide + Linsitinib; first compound 0.01 µM),relative viability (Etoposide + Linsitinib; first compound 0.03162 µM),relative viability (Etoposide + Linsitinib; first compound 0.1 µM),relative viability (Etoposide + Linsitinib; first compound 0.3162 µM),relative viability (Etoposide + Linsitinib; first compound 1 µM),relative viability (Bleomycin + Tozasertib; first compound 0.01 µM),relative viability (Bleomycin + Tozasertib; first compound 0.03162 µM),relative viability (Bleomycin + Tozasertib; first compound 0.1 µM),relative viability (Bleomycin + Tozasertib; first compound 0.3162 µM),relative viability (Bleomycin + Tozasertib; first compound 1 µM),relative viability (Etoposide + Foretinib; first compound 0.01 µM),relative viability (Etoposide + Foretinib; first compound 0.03162 µM),relative viability (Etoposide + Foretinib; first compound 0.1 µM),relative viability (Etoposide + Foretinib; first compound 0.3162 µM),relative viability (Etoposide + Foretinib; first compound 1 µM),relative viability (Etoposide + Bortezomib; first compound 0.01 µM),relative viability (Etoposide + Bortezomib; first compound 0.03162 µM),relative viability (Etoposide + Bortezomib; first compound 0.1 µM),relative viability (Etoposide + Bortezomib; first compound 0.3162 µM),relative viability (Etoposide + Bortezomib; first compound 1 µM)
NCI-H647,1.14,1.15,1.13,0.416,0.164,0.0723,0.103,0.0701,0.0484,0.0467,1.02,1.25,1.21,0.654,0.271,0.807,1.4,0.72,0.298,0.147
A-427,1.17,1.16,0.815,0.841,0.243,0.201,0.168,0.223,0.126,0.159,0.947,1.08,0.853,0.424,0.284,0.92,1.02,0.726,0.819,0.244
EMC-BAC-2,0.719,0.803,0.58,0.273,0.186,0.2,0.278,0.246,0.22,0.178,0.918,1.05,0.612,0.302,0.238,1.07,1.03,0.729,0.452,0.196
NCI-H460,0.684,0.601,0.447,0.0349,0.0212,0.0837,0.101,0.153,0.0462,0.0258,0.871,0.907,0.809,0.142,0.0668,0.933,0.763,0.608,0.0494,0.0267
LCLC-103H,0.998,1.12,0.93,1.02,0.902,0.427,0.479,0.476,0.279,0.234,0.592,0.597,0.77,0.636,0.502,1.1,1.24,0.93,0.956,0.978
HCC-827,0.983,0.919,0.931,0.659,0.33,0.419,0.453,0.332,0.311,0.205,0.996,1.01,0.915,0.284,0.177,1.09,1.06,1.07,0.803,0.458
NCI-H1355,0.732,0.945,0.466,0.585,0.334,0.511,0.596,0.478,0.255,0.224,0.812,0.998,0.828,0.507,0.285,1.15,1.35,0.671,1.13,0.412
NCI-H1734,0.746,0.932,0.725,0.688,0.509,0.222,0.223,0.279,0.199,0.15,0.776,0.923,0.701,0.602,0.369,0.894,0.878,0.572,0.624,0.308
HARA,0.892,1.15,1.04,0.738,0.182,0.0994,0.118,0.107,0.1,0.081,0.703,0.9,0.291,0.534,0.187,1.04,1.29,1.11,0.995,0.235
HCC-15,0.892,0.903,0.755,0.396,0.16,0.308,0.343,0.303,0.148,0.153,1.07,1.02,1.02,0.314,0.157,0.959,1.04,1.13,0.67,0.157
LCLC-97TM1,–,0.193,0.122,0.151,0.1,0.176,0.217,0.218,0.158,0.195,0.87,0.988,0.732,0.341,0.173,0.865,0.329,0.485,0.132,0.0671
SK-LU-1,1.03,1.03,0.829,0.401,0.281,0.295,0.35,0.363,0.235,0.215,0.765,0.701,0.484,0.329,0.18,1.44,1.11,0.765,0.515,0.272
NCI-H1651,0.885,0.922,0.864,0.331,0.134,0.529,0.455,0.303,0.156,0.105,0.781,0.659,0.784,0.351,0.251,0.914,0.979,0.875,0.532,0.181
NCI-H2170,–,–,–,–,–,0.627,0.826,0.735,0.549,0.372,0.988,1.02,0.917,0.906,0.765,–,–,–,–,–
NCI-H2023,0.617,0.646,0.651,0.444,0.171,0.237,0.283,0.222,0.116,0.109,0.987,0.886,0.814,0.352,0.218,0.975,1.15,0.456,0.46,0.123
LC-2-ad,0.809,0.976,0.863,0.624,0.248,0.395,0.354,0.34,0.247,0.276,0.898,0.896,0.696,0.424,0.308,0.9,1.08,0.977,0.742,0.209
NCI-H1703,0.672,1.04,0.642,0.641,0.329,–,–,–,–,–,0.39,0.34,0.349,0.268,0.343,0.433,0.519,0.294,0.22,0.198
Calu-6,0.914,1.01,0.819,0.758,0.39,–,–,–,–,–,0.825,0.922,0.921,0.41,0.234,1.06,0.973,1.03,0.693,0.405
NCI-H1792,0.405,0.331,0.261,0.418,0.289,–,–,–,–,–,–,–,–,–,–,0.899,0.878,0.819,0.897,0.581

Cell Line,relative viability (Etoposide + Linsitinib; first compound 0.01 µM),relative viability (Etoposide + Linsitinib; first compound 0.03162 µM),relative viability (Etoposide + Linsitinib; first compound 0.1 µM),relative viability (Etoposide + Linsitinib; first compound 0.3162 µM),relative viability (Etoposide + Linsitinib; first compound 1 µM),relative viability (Bleomycin + Tozasertib; first compound 0.01 µM),relative viability (Bleomycin + Tozasertib; first compound 0.03162 µM),relative viability (Bleomycin + Tozasertib; first compound 0.1 µM),relative viability (Bleomycin + Tozasertib; first compound 0.3162 µM),relative viability (Bleomycin + Tozasertib; first compound 1 µM),relative viability (Etoposide + Foretinib; first compound 0.01 µM),relative viability (Etoposide + Foretinib; first compound 0.03162 µM),relative viability (Etoposide + Foretinib; first compound 0.1 µM),relative viability (Etoposide + Foretinib; first compound 0.3162 µM),relative viability (Etoposide + Foretinib; first compound 1 µM),relative viability (Etoposide + Bortezomib; first compound 0.01 µM),relative viability (Etoposide + Bortezomib; first compound 0.03162 µM),relative viability (Etoposide + Bortezomib; first compound 0.1 µM),relative viability (Etoposide + Bortezomib; first compound 0.3162 µM),relative viability (Etoposide + Bortezomib; first compound 1 µM)
SK-MES-1,1.05,1.07,0.862,0.612,0.262,0.531,0.542,0.35,0.15,0.134,0.856,1.13,0.719,0.704,0.433,–,–,–,–,–
NCI-H1650,–,–,–,–,–,0.307,0.234,0.213,0.189,0.178,0.981,1.09,0.9,0.431,0.281,0.201,0.204,0.208,0.181,0.185
EBC-1,0.903,0.942,0.349,0.788,0.466,–,–,–,–,–,0.119,0.107,0.12,0.102,0.107,0.528,0.503,0.55,0.581,0.379
NCI-H1623,–,–,–,–,–,0.393,0.427,0.417,0.301,0.32,0.984,0.937,0.628,0.658,0.298,–,–,–,–,–
NCI-H2342,–,–,–,–,–,0.537,0.522,0.493,0.432,0.445,0.878,1.02,0.493,0.359,0.298,–,–,–,–,–
SW 900,–,–,–,–,–,0.507,0.467,0.341,0.208,0.174,0.806,0.87,0.725,0.596,0.278,–,–,–,–,–
NCI-H1563,1.17,1.05,0.957,0.673,0.612,–,–,–,–,–,0.758,0.93,0.785,0.609,0.604,0.802,0.866,0.781,0.618,0.605
NCI-H1793,0.692,0.989,–,0.716,0.429,0.339,0.308,0.362,0.191,0.171,0.491,0.644,–,0.503,0.248,–,–,–,–,–
NCI-H1299,0.973,1.03,1,0.879,0.7,–,–,–,–,–,1.07,1.11,1.11,0.997,0.811,1.03,0.999,1.11,0.957,0.821
NCI-H358,0.622,0.792,0.561,0.202,0.181,0.103,0.101,0.0984,0.106,0.11,0.705,0.756,0.447,0.184,0.134,–,–,–,–,–
NCI-H1395,1,1.33,0.836,0.897,0.656,0.646,0.695,0.619,0.407,0.404,1,0.978,0.868,0.885,0.606,–,–,–,–,–
NCI-H522,–,–,–,–,–,0.538,0.542,0.504,0.418,0.346,–,–,–,–,–,–,–,–,–,–
A549,0.41,0.584,0.225,0.262,0.0891,–,–,–,–,–,0.773,1.01,0.753,0.236,0.068,–,–,–,–,–
NCI-H1944,1.45,1.33,0.844,0.733,0.392,0.196,0.197,0.187,0.147,0.12,0.697,0.95,0.578,0.471,0.347,–,–,–,–,–
NCI-H1648,–,–,–,–,–,0.383,–,0.401,0.405,0.379,–,–,–,–,–,–,–,–,–,–
IA-LM,0.584,0.596,0.348,0.506,0.527,–,–,–,–,–,1.06,1.09,0.865,0.975,0.494,0.821,0.929,0.466,0.837,0.522
ChaGo-K-1,–,–,–,–,–,0.221,0.214,0.23,0.164,0.192,0.781,0.978,0.8,0.281,0.21,1.16,0.94,0.679,0.337,0.282
LK-2,0.522,0.442,0.295,0.442,0.18,0.178,0.159,0.179,0.179,0.177,0.879,1.17,0.933,0.912,0.401,–,–,–,–,–
HCC-44,0.61,0.745,0.729,0.535,0.267,0.273,0.312,0.302,0.19,0.137,–,–,–,–,–,1.01,0.905,1.02,0.781,0.418
